# Values of other authors in patent publication US7575768B2, “Dietary supplements and prepared foods containing triglyceride-recrystallized non-esterified phytosterols” (Brandeis University, priority 2005, dated 2009).
# Test system: humans
SMILES,"lowering of serum cholesterol (12-18 g per day in divided doses, males with atherosclerosis)","decrease of plasma cholesterol level (9-18 grams per day, coarse powdered form)"
CC[C@H](CC[C@@H](C)[C@H]1CC[C@H]2[C@@H]3CC=C4C[C@@H](O)CC[C@]4(C)[C@H]3CC[C@]12C)C(C)C [beta sitosterol],15-20%,
CC[C@H](CC[C@@H](C)[C@H]1CC[C@H]2[C@@H]3CC=C4C[C@@H](O)CC[C@]4(C)[C@H]3CC[C@]12C)C(C)C [sitosterol],,approximately 15%
